For assay [1], the target named is human full length PIK3CA wild-type (p110α/p85α) (Homo sapiens (Human), UniProt P42336). The assay is described as follows: PI3K-alpha kinase (PIK3CA) activity, wild-type, Transcreener ADP2 FI assay. To be noted: PI3K-α (PIK3CA) biochemical. On the procedure:
(§1) PI3K-Alpha Kinase (PIK3CA) Activity, Wild-Type and H1047R Mutant and Determining IC50 Values for Inhibitors
(§2) Recombinant, catalytically active human full length PIK3KA Wild-type and H1047R mutant were purchased as 1:1 complex of N-terminal 6× his tagged p110 ? (catalytic) and untagged p85 ? (regulatory subunit) from EMD Millipore Sigma (cat. no. 14-602M and 14-792M, respectively). The enzyme stocks were diluted to 5× stocks in buffer (20 mM HEPES pH 7.4, 100 mM NaCl, 0.5 mM EGTA, 0.01% triton-x-100) just before use. PIP2diC8 (Avanti Polar Lipids Inc., cat. no. 850185) or phosphoinositol-4,5-bisphosphate with phosphoserine (PIP2:PS) membrane (Thermo Fisher Scientific, cat. no. PV5100) was used as lipid substrates. PIP2diC8 lyophilized powder and PIP2:PS (1:19) membrane stock (1 mM in PIP2) were separately dissolved in milliQ water to a concentration of 250 uM and stored in −20° C. 10 mM stocks of compounds were serially diluted (3×) in neat DMSO and stored in a dessicator at room temperature. 5× compound stocks in 25% DMSO were prepared fresh from neat DMSO stocks.
(§3) Wild-type (WT) and H1047R mutant protein, along with buffer components (except ATP), were incubated with or without compound at 27° C. for 1 h. After incubation, the reaction was initiated by the addition of 5 uL of 125 uM ATP. A typical assay mixture (25 uL) comprised 40 mM HEPES buffer, pH 7.4, 25 mM MgCl2, 0.01% v/v triton-X-100, 5% v/v DMSO, 20 mM NaCl, 1-5 nM wt or H1047R, 25 uM ATP, and 50 uM PIP2diC8 or PIP2 in membrane. The reaction was allowed to proceed until about […] (2.5 uM ADP) after which time, 10 uL of reaction mixture was quenched with 25 uL of transcreener reagent (Transcreener ADP2 FI assay kit, BellBrook labs, Cat. No. 3013). The contents were incubated at rt for 1 h and fluorescence was measured using a plate reader (Paradigm, Molecular Devices). The same assay was also run at pH 6.0 or 6.4 using MOPS buffer (Fisher BioReagents, CAS 1132-61-2). A calibration curve was generated under identical buffer conditions with varying ADP amounts. Using that, the observed fluorescence was converted to uM ADP. A plot between [ADP] and log[I] yielded the dose-response curves that enabled the calculation of IC50s.

Assay [2] deals with human full length PIK3CA H1047R mutant (p110α/p85α) (Homo sapiens (Human), UniProt P42336, H1047R). The experiment in a line: PI3K-alpha kinase (PIK3CA) activity, H1047R mutant, Transcreener ADP2 FI assay. The note with it: PI3K-α (PIK3CA) biochemical. The procedure: as §1, §2, §3

Broadly, the IC50 is the point on the concentration scale where inhibition reaches its midpoint.

Sequence of human full length PIK3CA wild-type (p110α/p85α) (P42336 whole entry): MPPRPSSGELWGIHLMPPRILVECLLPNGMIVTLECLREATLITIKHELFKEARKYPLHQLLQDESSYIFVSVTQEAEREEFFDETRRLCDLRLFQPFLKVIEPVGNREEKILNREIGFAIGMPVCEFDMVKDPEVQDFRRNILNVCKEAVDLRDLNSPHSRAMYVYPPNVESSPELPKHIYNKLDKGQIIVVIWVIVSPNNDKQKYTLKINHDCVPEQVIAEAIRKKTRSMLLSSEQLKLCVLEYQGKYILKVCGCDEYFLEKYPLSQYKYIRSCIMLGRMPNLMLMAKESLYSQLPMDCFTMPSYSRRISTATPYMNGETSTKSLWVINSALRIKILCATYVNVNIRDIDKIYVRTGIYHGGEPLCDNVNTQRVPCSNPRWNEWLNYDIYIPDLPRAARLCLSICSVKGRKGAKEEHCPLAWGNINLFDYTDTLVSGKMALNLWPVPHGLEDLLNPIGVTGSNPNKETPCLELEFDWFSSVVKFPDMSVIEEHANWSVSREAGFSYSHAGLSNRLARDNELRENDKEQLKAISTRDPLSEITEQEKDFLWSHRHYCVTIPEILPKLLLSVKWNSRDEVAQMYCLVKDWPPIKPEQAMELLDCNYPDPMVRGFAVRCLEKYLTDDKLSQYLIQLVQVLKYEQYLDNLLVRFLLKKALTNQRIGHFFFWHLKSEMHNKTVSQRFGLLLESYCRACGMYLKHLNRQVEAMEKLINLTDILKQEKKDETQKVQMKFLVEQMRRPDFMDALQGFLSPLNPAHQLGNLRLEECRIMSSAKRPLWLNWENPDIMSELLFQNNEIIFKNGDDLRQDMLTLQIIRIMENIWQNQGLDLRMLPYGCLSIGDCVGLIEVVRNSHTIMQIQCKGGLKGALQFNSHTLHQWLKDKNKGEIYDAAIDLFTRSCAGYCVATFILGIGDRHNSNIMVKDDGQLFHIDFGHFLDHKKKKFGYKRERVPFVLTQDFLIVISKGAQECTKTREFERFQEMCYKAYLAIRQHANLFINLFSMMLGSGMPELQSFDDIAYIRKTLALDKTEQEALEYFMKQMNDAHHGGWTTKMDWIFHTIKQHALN
Sequence of human full length PIK3CA wild-type (p110α/p85α) (P27986 whole entry partner): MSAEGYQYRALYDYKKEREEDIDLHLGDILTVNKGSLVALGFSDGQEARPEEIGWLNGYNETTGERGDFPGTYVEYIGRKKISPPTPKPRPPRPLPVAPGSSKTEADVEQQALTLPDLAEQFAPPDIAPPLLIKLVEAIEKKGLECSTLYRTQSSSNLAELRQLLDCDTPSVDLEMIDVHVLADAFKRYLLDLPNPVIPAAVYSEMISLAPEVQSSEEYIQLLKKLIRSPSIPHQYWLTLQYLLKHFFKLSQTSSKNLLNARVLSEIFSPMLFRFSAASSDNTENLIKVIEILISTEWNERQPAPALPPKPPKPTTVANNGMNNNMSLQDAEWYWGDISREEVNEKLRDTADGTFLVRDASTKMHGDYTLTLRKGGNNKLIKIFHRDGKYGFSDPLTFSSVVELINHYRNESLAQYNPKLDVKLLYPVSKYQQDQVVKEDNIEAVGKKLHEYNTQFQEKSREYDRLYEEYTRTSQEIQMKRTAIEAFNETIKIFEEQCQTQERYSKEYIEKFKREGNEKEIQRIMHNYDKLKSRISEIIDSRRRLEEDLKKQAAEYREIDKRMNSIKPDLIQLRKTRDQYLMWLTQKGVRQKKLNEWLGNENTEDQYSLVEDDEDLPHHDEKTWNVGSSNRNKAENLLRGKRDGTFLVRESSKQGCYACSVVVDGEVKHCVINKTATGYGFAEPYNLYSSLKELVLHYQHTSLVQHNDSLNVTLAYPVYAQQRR
Sequence of human full length PIK3CA H1047R mutant (p110α/p85α) (P42336 whole entry H1047R): as the sequence (P42336 whole entry) above, with H1047R counted along it
Sequence of human full length PIK3CA H1047R mutant (p110α/p85α) (P27986 whole entry partner): as the sequence (P27986 whole entry partner) above

Take `Cc1cc(C(C)N(C)c2ccccc2C(=O)O)c2oc(N3CCC(C)(C)CC3)cc(=O)c2c1` (stereo not drawn) [Example 5, 2-[1-[2-(4,4-Dimethyl-1-piperidyl)-6-methyl-4-oxo-chromen-8-yl]ethyl-methyl-amino]benzoic acid]: the half-maximal inhibitory concentration (IC50) in assay [1] and in assay [2] was greater than 10 µM each time.

Turning to `Cc1cc(C(C)Nc2ccc(C#N)cc2C(=O)O)c2oc(N3CCC(C)(C)CC3)cc(=O)c2c1` (stereo not drawn) [Example 6, 5-Cyano-2-[1-[2-(4,4-dimethyl-1-piperidyl)-6-methyl-4-oxo-chromen-8-yl]ethylamino]benzoic acid], the IC50 in assay [1] was greater than 10 µM; in assay [2] it was less than 0.5 µM.

As for `Cc1cc(C(C)Nc2cc(F)ccc2[N+](=O)[O-])c2oc(N3CCC(C)(C)CC3)cc(=O)c2c1` (stereo not drawn) [Example 8, 2-(4,4-Dimethyl-1-piperidyl)-8-[1-(5-fluoro-2-nitro-anilino)ethyl]-6-methyl-chromen-4-one], the concentration for half-maximal inhibition (IC50) in assay [1] and in assay [2] was greater than 10 µM in each case.

In the case of `Cc1cc(C(C)Nc2c(Cl)cccc2C(=O)O)c2oc(N3CCC(C)(C)CC3)cc(=O)c2c1` (stereo not drawn) [Example 11, 3-Chloro-2-[1-[2-(4,4-dimethyl-1-piperidyl)-6-methyl-4-oxo-chromen-8-yl]ethylamino]benzoic acid], the half-maximal inhibitory concentration (IC50) in assay [1] and in assay [2] was greater than 10 µM throughout.

For `Cc1cc(C(C)Nc2cc3c(cc2C(=O)O)OCO3)c2oc(N3CCC(C)(C)CC3)cc(=O)c2c1` (stereo not drawn) [Example 33, 6-[1-[2-(4,4-Dimethyl-1-piperidyl)-6-methyl-4-oxo-chromen-8-yl]ethylamino]-1,3-benzodioxole-5-carboxylic acid], the half-maximal inhibitory concentration (IC50) in assay [1] and in assay [2] was greater than 10 µM each time.

For the compound `Cc1cc(C(C)Nc2ccccc2C(=O)O)c2oc(N3CC(Cl)C3)cc(=O)c2c1` (stereo not drawn) [Example 63, 2-[1-[2-(3-Chloroazetidin-1-yl)-6-methyl-4-oxo-chromen-8-yl]ethylamino]benzoic acid], the figures for the concentration for half-maximal inhibition (IC50) in assay [1] and in assay [2] were greater than 10 µM and less than 0.5 µM, respectively.

Turning to `Cc1cc(C(C)Nc2ccccc2C(=O)O)c2oc(NCC(C)C)cc(=O)c2c1` (stereo not drawn) [Example 77, 2-[1-[2-(Isobutylamino)-6-methyl-4-oxo-chromen-8-yl]ethylamino]benzoic acid], the values for the IC50 in assay [1] and in assay [2] were greater than 10 µM and less than 0.5 µM, respectively. `Cc1cc(C(C)Nc2ccccc2C(=O)O)c2oc(N3CC4CCC(C3)O4)cc(=O)c2c1` (stereo not drawn) [Example 82, 2-[1-[6-Methyl-2-(8-oxa-3-azabicyclo[3.2.1]octan-3-yl)-4-oxo-chromen-8-yl]ethylamino]benzoic acid]: the IC50 in assay [1] is greater than 10 µM. On the same count and under the same terms, for `Cc1cc(C(C)Nc2ccccc2C(=O)O)c2oc(N3CCS(=O)(=O)CC3)cc(=O)c2c1` (stereo not drawn) [Example 117, 2-[1-[2-(1,1-Dioxo-1,4-thiazinan-4-yl)-6-methyl-4-oxo-chromen-8-yl]ethylamino]benzoic acid] the value was greater than 10 µM.

`CCNc1cc(=O)c2cc(C)cc(C(C)Nc3ccccc3C(=O)O)c2o1` (stereo not drawn) [Example 126, 2-[1-[2-(Ethylamino)-6-methyl-4-oxo-chromen-8-yl]ethylamino]benzoic acid] showed a half-maximal inhibitory concentration (IC50) in assay [1] greater than 10 µM. In the case of `Cc1cc(C(C)Nc2ccccc2C(=O)O)c2oc(N3CCn4cnnc4C3)cc(=O)c2c1` (stereo not drawn) [Example 163, 2-[1-[2-(6,8-Dihydro-5H-[1,2,4]triazolo[4,3-a]pyrazin-7-yl)-6-methyl-4-oxo-chromen-8-yl]ethylamino]benzoic acid], the half-inhibitory concentration (IC50) in assay [1] was greater than 10 µM. Compound `Cc1cc(C(C)Nc2ccccc2C(=O)O)c2oc(NC34CC5CC(CC(CO)(C5)C3)C4)cc(=O)c2c1` (stereo not drawn) [Example 169] returned an IC50 in assay [1] greater than 10 µM. In the case of `COc1ccc(NC(C)c2cc(C)cc3c(=O)cc(N4Cc5ccccc5C4)oc23)c(C(=O)O)n1` (stereo not drawn) [Example 237, 3-[1-(2-Isoindolin-2-yl-6-methyl-4-oxo-chromen-8-yl)ethylamino]-6-methoxy-pyridine-2-carboxylic acid], in assay [1], the IC50 is greater than 10 µM. As for `Cc1cc(C(C)Nc2cccc(F)c2C(=O)O)c2oc(N3Cc4ccc(F)cc4C3)cc(=O)c2c1` (stereo not drawn) [Example 238, 2-Fluoro-6-[1-[2-(5-fluoroisoindolin-2-yl)-6-methyl-4-oxo-chromen-8-yl]ethylamino]benzoic acid], the 50% inhibitory concentration (IC50) in assay [1] was greater than 10 µM. Take `Cc1cc([C@@H](C)Nc2ccc(Cl)nc2C(=O)O)c2oc(N3CCC(C)(C)CC3)cc(=O)c2c1` [Example 256, 6-Chloro-3-[[(1R)-1-[2-(4,4-dimethyl-1-piperidyl)-6-methyl-4-oxo-chromen-8-yl]lethyl]amino]pyridine-2-carboxylic acid]: the IC50 in assay [1] and in assay [2] was less than 0.5 µM each time.

Turning to `Cc1cc([C@@H](C)Nc2ccccc2C(=O)O)c2oc(N3CC(C)(c4ccccc4)C3)c(C)c(=O)c2c1` [Example 274, 2-[[(1R)-1-[3,6-Dimethyl-2-(3-methyl-3-phenyl-azetidin-1-yl)-4-oxo-chromen-8-yl]ethyl]amino]benzoic acid], the IC50 in assay [1] and in assay [2] was less than 0.5 µM each time. For the compound `Cc1cc([C@@H](C)Nc2ccccc2C(=O)O)c2oc(N3CC[C@H](c4ccccc4)C3)c(C)c(=O)c2c1` [Example 286, 2-[[(1R)-1-[3,6-dimethyl-4-oxo-2-[(3R)-3-phenylpyrrolidin-1-yl]chromen-8-yl]ethyl]amino]benzoic acid], the half-inhibitory concentration (IC50) in assay [1] and in assay [2] was less than 0.5 µM throughout. For the compound `Cc1cc(C(C)Nc2ccc(Cl)nc2C(=O)O)c2oc(N3CCC4(CC3)CC4)cc(=O)c2c1` (stereo not drawn) [Example 298, 3-[1-[2-(6-Azaspiro[2.5]octan-6-yl)-6-methyl-4-oxo-chromen-8-yl]ethylamino]-6-chloro-pyridine-2-carboxylic acid], the IC50 in assay [1] and in assay [2] was less than 0.5 µM throughout.

`Cc1cc([C@@H](C)Nc2ccc(Cl)nc2C(=O)O)c2oc(N3Cc4ccccc4C3)cc(=O)c2c1` [Example 300, 6-Chloro-3-[[(1R)-1-(2-isoindolin-2-yl-6-methyl-4-oxo-chromen-8-yl)ethyl]amino]pyridine-2-carboxylic acid]: the IC50 in assay [1] and in assay [2] was less than 0.5 µM throughout. In the case of `Cc1cc([C@@H](C)Nc2ccc(Cl)nc2C(=O)O)c2oc(N3Cc4ccc5c(c4C3)OCO5)cc(=O)c2c1` [Example 301, 6-Chloro-3-[[(1R)-1-[2-(6,8-dihydro-[1,3]dioxolo[4,5-e]isoindol-7-yl)-6-methyl-4-oxo-chromen-8-yl]ethyl]amino]pyridine-2-carboxylic acid], the IC50 in assay [1] and in assay [2] was less than 0.5 µM in each case.

`Cc1cc(C(C)Nc2ccc(Cl)nc2C(=O)O)c2oc(N3CCCCC3)c(C)c(=O)c2c1` (stereo not drawn) [Example 305, 6-Chloro-3-[1-[3,6-dimethyl-4-oxo-2-(1-piperidyl)chromen-8-yl]ethylamino]pyridine-2-carboxylic acid]: the IC50 in assay [1] and in assay [2] was less than 0.5 µM throughout. Turning to `Cc1cc([C@@H](C)Nc2ccc(Cl)nc2C(=O)O)c2oc(N3CCC4(CC3)CC4)c(C)c(=O)c2c1` [Example 306, 3-[[(1R)-1-[2-(6-Azaspiro[2.5]octan-6-yl)-3,6-dimethyl-4-oxo-chromen-8-yl]ethyl]amino]-6-chloro-pyridine-2-carboxylic acid], the IC50 in assay [1] and in assay [2] was less than 0.5 µM throughout.

`Cc1cc([C@@H](C)Nc2ccc(Cl)nc2C(=O)O)c2oc(N3Cc4ccc(F)cc4C3)c(C)c(=O)c2c1` [Example 308, 6-Chloro-3-[[(1R)-1-[2-(5-fluoroisoindolin-2-yl)-3,6-dimethyl-4-oxo-chromen-8-yl]ethyl]amino]pyridine-2-carboxylic acid]: the IC50 in assay [1] and in assay [2] was less than 0.5 µM in each case.

In the case of `CNC(=O)C1CCN(c2cc(=O)c3cc(C)cc(C(C)Nc4ccccc4C(=O)O)c3o2)CC1` (stereo not drawn) [Example 371, 2-[1-[6-Methyl-2-[4-(methylcarbamoyl)-1-piperidyl]-4-oxo-chromen-8-yl]ethylamino]benzoic acid], in assay [1], the half-inhibitory concentration (IC50) was greater than 10 µM. In the case of `COC1CCN(c2cc(=O)c3cc(C)cc(C(C)Nc4ccccc4C(=O)O)c3o2)CC1` (stereo not drawn) [Example 373, 2-[1-[2-(4-Methoxy-1-piperidyl)-6-methyl-4-oxo-chromen-8-yl]ethylamino]benzoic acid], the IC50 in assay [1] was greater than 10 µM.

Consider `Cc1cc(C(C)Nc2ccccc2C(=O)O)c2oc(N3CCC4(CC3)CN(C)C(=O)O4)cc(=O)c2c1` (stereo not drawn) [Example 380, 2-[1-[6-Methyl-2-(3-methyl-2-oxo-1-oxa-3,8-diazaspiro[4.5]decan-8-yl)-4-oxo-chromen-8-yl]ethylamino]benzoic acid], for which the IC50 in assay [1] is greater than 10 µM.

For the origin of these results see patent publication US20230286960A1, “ALLOSTERIC CHROMENONE INHIBITORS OF PHOSPHOINOSITIDE 3-KINASE (PI3K) FOR THE TREATMENT OF DISEASE” (Petra Pharma Corporation, priority 2020, published 2023).
